Tests used:
AMPK = test: Measurement of AMPK activity by Western blot in C2C12 cells; format: cell-based; set-up: key to AMPK activity (degree of phosphorylation of serine-79 and threonine-172): fold increase in threonine-172 phosphorylation; details: 10 μM for 50 minutes; for AMPK activity (degree of phosphorylation of serine-79 and threonine-172): no superscript: Western blot of serine-79 and threonine-172 phosphorylation; for AMPK activity (class: degree of phosphorylation of threonine-172): strong/mild/weak
Procedure, shortened: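 Differentiated C2C12 cells were exposed to test material at 10 μM for 50 minutes, then lysed. AMPK activity was taken from Western blots of Thr-172 phosphorylation and acetyl CoA carboxylase Ser-79 phosphorylation, with ERK as loading reference. Thr-172 rise was graded strong (≥3-fold), mild (1-3-fold) or weak (<1-fold).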

C2C12 muscle cells = test: Analysis of glucose absorption (2-deoxyglucose) in differentiated C2C12 muscle cells; format: cell-based; details: test materials 10 μM, times relative to control group
Procedure, shortened: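 Differentiated C2C12 myotubes (6 days in 1% serum) held 3 h in KRB with 5 mM glucose, then given test material at 10 μM. After 30 min, 0.2 μCi 2-deoxyglucose added for 20 min; uptake measured by radioactive counting of NaOH lysates.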

Row | SMILES | AMPK activity (degree of phosphorylation of serine-79 and threonine-172) (AMPK) | AMPK activity (class: degree of phosphorylation of threonine-172) (AMPK) | Glucose absorption (C2C12 muscle cells)
1 | CC(C)c1nc(NCc2ccccc2)c2ccccc2n1 [Compound 175, Benzyl-(2-isopropylquinazolino-4-yl)-amine] | 4.8 | strong (“strong” means that the degree of phosphorylation of threonine-172 increased by 3 times or more) | 2.7
2 | COc1cccc(CNc2nc(C(C)C)nc3ccccc23)c1 [Compound 176, (2-Isopropylquinazolino-4-yl)-(3-methoxybenzyl)-amine] | 4.4 | strong (“strong” means that the degree of phosphorylation of threonine-172 increased by 3 times or more) | 2.4
3 | COc1ccc(CNc2nc(C(C)C)nc3ccccc23)cc1 [Compound 177, (2-Isopropylquinazolino-4-yl)-(4-methoxybenzyl)-amine] | 5.5 | strong (“strong” means that the degree of phosphorylation of threonine-172 increased by 3 times or more) | 2.8
4 | CC(C)c1nc(NCc2cccc(C(F)(F)F)c2)c2ccccc2n1 [Compound 178, (2-Isopropylquinazolino-4-yl)-(3-trifluoromethylbenzyl)-amine] | 5.7 | strong (“strong” means that the degree of phosphorylation of threonine-172 increased by 3 times or more) | 4.2
5 | CC(C)c1nc(NCCc2ccccc2)c2ccccc2n1 [Compound 179, (2-Isopropylquinazolino-4-yl)-phenethylamine] | 3.8 | strong (“strong” means that the degree of phosphorylation of threonine-172 increased by 3 times or more) | 2.9
6 | CC(C)c1nc(NCCCCc2ccccc2)c2ccccc2n1 [Compound 180, (2-Isopropylquinazolino-4-yl)-(4-phenylbutyl)-amine] | 3.9 | strong (“strong” means that the degree of phosphorylation of threonine-172 increased by 3 times or more) | 4.1
7 | CC(C)c1nc(NCc2cccc3ccccc23)c2ccccc2n1 [Compound 181, (2-Isopropylquinazolino-4-yl)-naphthaleno-1-ylmethylamine] | 3.1 | strong (“strong” means that the degree of phosphorylation of threonine-172 increased by 3 times or more) | 3.1
8 | CC(C)c1nc(NCc2ccc3c(c2)OCO3)c2ccccc2n1 [Compound 182, Benzo[1,3]dioxol-5-ylmethyl-(2-isopropylquinazolino-4-yl)-amine] | 2.9 | strong (“strong” means that the degree of phosphorylation of threonine-172 increased by 3 times or more) | 3.1
9 | CC(C)c1nc(NCc2cccc(F)c2)c2ccccc2n1 [Compound 183, (3-Fluorobenzyl)-(2-isopropylquinazolino-4-yl)-amine] | 2.6 | strong (“strong” means that the degree of phosphorylation of threonine-172 increased by 3 times or more) | 3.3
10 | CC(C)c1nc(NCCc2cccc(F)c2)c2ccccc2n1 [Compound 184, [2-(3-Fluorophenyl)-ethyl]-(2-isopropylquinazolino-4-yl)-amine] | 1.9 | strong (“strong” means that the degree of phosphorylation of threonine-172 increased by 3 times or more) | 3.2
11 | CC(C)(C)c1nc(NCc2ccccc2)c2ccccc2n1 [Compound 187, Benzyl-(2-tert-butylquinazolino-4-yl)-amine] | 0.7 | mild (“mild” means that the degree of phosphorylation of threonine-172 increased by 1 to 3 times) | 2.4
12 | CC(C)(C)c1nc(NCCc2ccccc2)c2ccccc2n1 [Compound 191, (2-tert-Butylquinazolino-4-yl)-phenethylamine] | 5.2 | strong (“strong” means that the degree of phosphorylation of threonine-172 increased by 3 times or more) | 2.4
13 | CC(C)(C)c1nc(NCCCCc2ccccc2)c2ccccc2n1 [Compound 192, (2-tert-Butylquinazolino-4-yl)-(4-phenylbutyl)-amine] | 6.5 | strong (“strong” means that the degree of phosphorylation of threonine-172 increased by 3 times or more) | 2.1
14 | CC(C)(C)c1nc(NCCc2cccc(F)c2)c2ccccc2n1 [Compound 196, (2-tert-Butylquinazolino-4-yl)-[2-(3-fluorophenyl)-ethyl]-amine] | 4.8 | strong (“strong” means that the degree of phosphorylation of threonine-172 increased by 3 times or more) | 2.1
15 | c1ccc(CNc2nc(C3CCCCC3)nc3ccccc23)cc1 [Compound 199, Benzyl-(2-cyclohexylquinazolino-4-yl)-amine] | 2.3 | strong (“strong” means that the degree of phosphorylation of threonine-172 increased by 3 times or more) | 2.1
16 | COc1cccc(CNc2nc(C3CCCCC3)nc3ccccc23)c1 [Compound 200, (2-Cyclohexylquinazolino-4-yl)-(3-methoxybenzyl)-amine] | 1.5 | strong (“strong” means that the degree of phosphorylation of threonine-172 increased by 3 times or more) | 2.7
17 | COc1ccc(CNc2nc(C3CCCCC3)nc3ccccc23)cc1 [Compound 201, (2-Cyclohexylquinazolino-4-yl)-(4-methoxybenzyl)-amine] | 2.8 | strong (“strong” means that the degree of phosphorylation of threonine-172 increased by 3 times or more) | 1.7
18 | c1ccc(CCNc2nc(C3CCCCC3)nc3ccccc23)cc1 [Compound 203, (2-Cyclohexylquinazolino-4-yl)-phenethylamine] | 3.9 | strong (“strong” means that the degree of phosphorylation of threonine-172 increased by 3 times or more) | 2.0
19 | FC(F)(F)c1cccc(CNc2nc(-c3ccccn3)nc3ccccc23)c1 [Compound 226, (2-Pyridino-2-ylquinazolino-4-yl)-(3-trifluoromethylbenzyl)-amine] | 4.3 | strong (“strong” means that the degree of phosphorylation of threonine-172 increased by 3 times or more) | 1.9
20 | c1ccc(CCNc2nc(-c3ccccn3)nc3ccccc23)cc1 [Compound 227, Phenethyl-(2-pyridino-2-ylquinazolino-4-yl)-amine] | 4.9 | strong (“strong” means that the degree of phosphorylation of threonine-172 increased by 3 times or more) | 1.6
21 | c1ccc(CCCCNc2nc(-c3ccccn3)nc3ccccc23)cc1 [Compound 228, (4-Phenylbutyl)-(2-pyridino-2-ylquinazolino-4-yl)-amine] | 7.9 | strong (“strong” means that the degree of phosphorylation of threonine-172 increased by 3 times or more) | 2.1
22 | c1ccc(-c2nc(NCc3cccc4ccccc34)c3ccccc3n2)nc1 [Compound 229, Naphthaleno-1-ylmethyl-(2-pyridino-2-ylquinazolino-4-yl)-amine] | 4.7 | strong (“strong” means that the degree of phosphorylation of threonine-172 increased by 3 times or more) | 1.9
23 | c1ccc(-c2nc(NCc3ccc4c(c3)OCO4)c3ccccc3n2)nc1 [Compound 230, Benzo[1,3]dioxol-5-ylmethyl-(2-pyridino-2-ylquinazolino-4-yl)-amine] | 4.9 | strong (“strong” means that the degree of phosphorylation of threonine-172 increased by 3 times or more) | 1.7
24 | COc1ccc(CNc2nc(C(C)C)nc3ccccc23)c(OC)c1 [Compound 271, (2,4-Dimethoxybenzyl)-(2-isopropylquinazolino-4-yl)-amine] | 2.4 |  | 0.8
25 | COc1ccc(CNc2nc(Cc3ccccc3)nc3ccccc23)c(OC)c1 [Compound 272, (2-Benzylquinazolino-4-yl)-(2,4-dimethoxybenzyl)-amine] | 3.4 |  | 0.4
